“Also recorded” adds a separate entry of the source.

Series [1] has as its target T1, InhA (Mycobacterium tuberculosis, UniProt P9WGR1). Kind of series: Spectrophotometric (340 nm) assay of InhA-catalyzed NADH-dependent reduction, substrate test and steady-state kinetics.
The subject of series [2] is Brassica enoyl-ACP reductase. To be noted: read-out: steady-state Michaelis constant; cited from earlier work.
Series [3] deals with NADH-dependent enoyl-CoA reductase of M. smegmatis. The note with it: read-out: steady-state Michaelis constant; cited from earlier work.
Series [4] has as its target T1, InhA. Put plainly: Microcalorimetry binding of adenine dinucleotides to InhA. On the set-up: species or system M. tuberculosis. To be noted: for binding to InhA (in words): microcalorimetry, dinucleotide 0-100 μM.
In series [5] the test system is mycolic acid biosynthesis. It counts as biochemical, M. smegmatis.
Series [6] relates to NC(=O)C1=CN([C@@H]2O[C@H](COP(=O)(O)OP(=O)(O)OC[C@H]3O[C@@H](n4cnc5c(N)ncnc54)[C@H](O)[C@@H]3O)[C@@H](O)[C@H]2O)C=CC1. Kind of series: purified protein, by the assay type. To be noted: other: InhA-catalyzed reduction of 2-transoctenoyl-ACP, other substrate saturating.

T1 sequence (P9WGR1 whole entry, looked up): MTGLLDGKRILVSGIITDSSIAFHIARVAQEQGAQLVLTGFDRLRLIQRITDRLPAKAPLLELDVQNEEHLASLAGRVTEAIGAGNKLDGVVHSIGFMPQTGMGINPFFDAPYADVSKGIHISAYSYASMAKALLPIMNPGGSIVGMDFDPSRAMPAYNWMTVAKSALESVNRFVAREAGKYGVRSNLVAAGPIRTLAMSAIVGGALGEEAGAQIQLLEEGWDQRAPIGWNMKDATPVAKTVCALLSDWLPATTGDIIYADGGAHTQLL

In turn, 2-transoctenoyl-ACP registered a maximum velocity in series [1] (InhA-catalyzed reduction of 2-transoctenoyl-ACP by NADH) of 1570 µM/min/mg. Moreover, the “activity as substrate for InhA in the presence of NADH” value in series [1] (measured spectrophotometrically at 340 nm) is given as “Activity was demonstrated”. In addition, the Km in series [1] (read-out: steady-state Km, InhA-catalyzed reduction of 2-transoctenoyl-ACP, other substrate saturating) was determined as 2 µM. For orientation: Kd means the constant that tells how readily two partners part at equilibrium. As to `NC(=O)C1=CN([C@@H]2O[C@H](COP(=O)(O)OP(=O)(O)OC[C@H]3O[C@@H](n4cnc5c(N)ncnc54)[C@H](O)[C@@H]3O)[C@@H](O)[C@H]2O)C=CC1` [NADH], the Km in series [2] was 7.6 µM; in series [3], 21 µM. Also, the “binding stoichiometry, molecules per dimer of InhA” value in series [4] (37° C., 50 mM Tris pH 7.3) was “two”. The same molecule had an enthalpy of binding in series [4] (37° C., 50 mM Tris pH 7.3) of -13.5 kcal/mol. Also, the “binding to InhA (in words)” value in series [4] is “tight and stoichiometric binding”. Besides, the Kd in series [4] (titration calorimetry, 37° C., 50 mM Tris pH 7.3, 100 μM InhA, read-out: Kd (binding constant) for binding to InhA) turned out to be 2 µM. `NC(=O)C1=CN([C@@H]2O[C@H](COP(=O)(O)OP(=O)(O)OC[C@H]3O[C@@H](n4cnc5c(N)ncnc54)[C@H](OP(=O)(O)O)[C@@H]3O)[C@@H](O)[C@H]2O)C=CC1` [NADPH]: the “binding to InhA (in words)” value in series [4] is listed as “Neither NADPH, NADP nor NAD exhibited significant binding; also recorded: failed to show appreciable binding affinity”. In the case of `NC(=O)c1ccc[n+]([C@@H]2O[C@H](COP(=O)([O-])OP(=O)(O)OC[C@H]3O[C@@H](n4cnc5c(N)ncnc54)[C@H](OP(=O)(O)O)[C@@H]3O)[C@@H](O)[C@H]2O)c1` [NADP], the “binding to InhA (in words)” value in series [4] is given as “Neither NADPH, NADP nor NAD exhibited significant binding; also recorded: failed to show appreciable binding affinity”. On to `NC(=O)c1ccc[n+]([C@@H]2O[C@H](COP(=O)([O-])OP(=O)(O)OC[C@H]3O[C@@H](n4cnc5c(N)ncnc54)[C@H](O)[C@@H]3O)[C@@H](O)[C@H]2O)c1` [NAD], for which the “binding to InhA (in words)” value in series [4] is listed as “Neither NADPH, NADP nor NAD exhibited significant binding; also recorded: failed to show appreciable binding affinity”. Regarding `NNC(=O)c1ccncc1` [isoniazid], the “isoniazid-inhibition of mycolic acid biosynthesis (in words)” value in series [5] was “marked resistance to isoniazid-inhibition”. Take `CCCCC/C=C/C(=O)SCCNC(=O)CCNC(=O)[C@H](O)C(C)(C)COP(=O)(O)OP(=O)(O)OC[C@H]1O[C@@H](n2cnc3c(N)ncnc32)[C@H](O)[C@@H]1OP(=O)(O)O` [octenoyl-CoA]: the Km in series [3] is 232 µM. With InhA (Mycobacterium tuberculosis H37Rv), in series [6], the Km was 8 µM.

With octenoyl-ACP, the Km in series [2] is less than 1 µM.

Values taken from patent US5702935A, “Method and compounds for inhibiting lipid biosynthesis of bacteria and plants” (priority 1994, dated 1997).
